ChEMBL document CHEMBL1201862, “PubChem BioAssay data set” (2004)
The source made the active and inactive calls.

How the values were obtained:
[1] = target: G-protein coupled receptor 35 (Homo sapiens, UniProt Q9HC97); assay: SAR Analysis for the identification of Selective Antagonists of ERK1/2 Activity in GPR35-Overexpressing U2OS Cells. [Related pubchem assays: 2079, 2058 ]; type: functional, cell-based
[2] = system: Streptococcus sp. 'group A'; assay: Streptococcus pyogenes SK(-)GAS viability under kanamycin – luminescence, BacTiterGlo, confirmation, counter-screen for streptokinase expression inhibitor project, dose response (AID 1900); type: functional, organism-based
[3] = CCR5-tropic HIV-1 fusion blockers – cell-based, CCR5-tropic Env, dose response (AID 2279); type: functional
[4] = system: Streptococcus; assay: GAS UMAA2166 growth inhibition – luminescence, BacTiterGlo, counter-screen for streptokinase expression inhibitor project, dose response (AID 1915); type: functional, organism-based;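 note: potency for reduction of bacterial viability or growth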
[5] = target: Tyrosine-protein phosphatase non-receptor type 12 (Homo sapiens, UniProt Q05209); assay: SAR Selectivity Analysis of small molecule inhibitors of PEST using pCAP in a fluorescence assay. [Related pubchem assays (depositor defined):AID1779, AID1784, AID2135]; type: functional
Tyrosine-protein phosphatase non-receptor type 12, sequence (Q05209 whole entry): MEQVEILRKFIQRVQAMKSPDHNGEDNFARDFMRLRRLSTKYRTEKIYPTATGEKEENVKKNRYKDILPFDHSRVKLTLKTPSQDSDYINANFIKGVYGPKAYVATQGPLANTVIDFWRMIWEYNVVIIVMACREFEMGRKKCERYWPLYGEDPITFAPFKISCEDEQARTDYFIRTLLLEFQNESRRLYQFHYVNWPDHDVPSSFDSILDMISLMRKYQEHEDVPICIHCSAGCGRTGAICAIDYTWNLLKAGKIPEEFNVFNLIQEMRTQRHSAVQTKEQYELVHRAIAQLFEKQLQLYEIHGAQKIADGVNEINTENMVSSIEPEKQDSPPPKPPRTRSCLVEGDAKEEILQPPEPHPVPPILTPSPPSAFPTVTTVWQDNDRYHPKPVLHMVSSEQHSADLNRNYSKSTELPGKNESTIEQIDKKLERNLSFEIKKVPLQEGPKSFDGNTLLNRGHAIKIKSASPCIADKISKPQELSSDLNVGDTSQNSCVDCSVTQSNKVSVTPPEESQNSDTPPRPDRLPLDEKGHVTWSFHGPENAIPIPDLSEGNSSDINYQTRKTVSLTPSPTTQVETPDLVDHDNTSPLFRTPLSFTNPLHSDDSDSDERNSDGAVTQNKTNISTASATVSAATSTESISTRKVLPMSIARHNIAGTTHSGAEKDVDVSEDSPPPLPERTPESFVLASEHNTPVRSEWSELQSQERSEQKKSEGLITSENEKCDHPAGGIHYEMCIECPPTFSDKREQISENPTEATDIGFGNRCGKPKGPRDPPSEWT

[6] = target: T1, Tyrosine-protein phosphatase non-receptor type 22 (Homo sapiens, UniProt Q9Y2R2); assay: SAR LYP1 Fluorescent Assay using OMFP substrate for In Vitro dose response studies - Set 3. [Related pubchem assays (depositor defined):AID1779, AID1784, AID2140, AID2686]; type: functional
T1 sequence (Q9Y2R2 whole entry): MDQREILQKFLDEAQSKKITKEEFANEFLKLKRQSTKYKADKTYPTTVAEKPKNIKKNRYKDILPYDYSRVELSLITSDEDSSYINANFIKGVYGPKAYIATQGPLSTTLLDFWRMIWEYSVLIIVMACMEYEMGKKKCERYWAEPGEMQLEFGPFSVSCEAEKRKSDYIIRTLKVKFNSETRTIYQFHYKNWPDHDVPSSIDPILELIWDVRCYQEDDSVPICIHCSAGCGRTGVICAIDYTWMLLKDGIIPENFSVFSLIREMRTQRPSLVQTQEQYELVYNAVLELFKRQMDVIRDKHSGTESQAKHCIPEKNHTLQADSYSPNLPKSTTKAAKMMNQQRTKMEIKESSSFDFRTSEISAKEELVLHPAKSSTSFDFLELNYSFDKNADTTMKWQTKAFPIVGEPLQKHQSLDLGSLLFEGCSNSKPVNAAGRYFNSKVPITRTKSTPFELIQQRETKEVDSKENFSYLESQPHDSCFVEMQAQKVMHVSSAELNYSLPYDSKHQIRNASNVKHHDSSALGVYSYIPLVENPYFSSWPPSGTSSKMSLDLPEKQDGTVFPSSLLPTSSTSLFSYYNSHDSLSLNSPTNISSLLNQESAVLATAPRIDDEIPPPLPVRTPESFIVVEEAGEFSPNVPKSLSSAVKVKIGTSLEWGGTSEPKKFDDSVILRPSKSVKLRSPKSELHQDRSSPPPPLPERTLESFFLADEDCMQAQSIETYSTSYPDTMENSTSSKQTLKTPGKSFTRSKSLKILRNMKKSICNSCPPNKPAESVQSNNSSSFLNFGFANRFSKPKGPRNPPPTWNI

[7] = target: Tyrosine-protein phosphatase non-receptor type 7 (Homo sapiens, UniProt P35236); assay: inhibition of hematopoietic tyrosine phosphatase HePTP – biochemical, set 2, SAR follow-up (AID 449736); type: functional
Tyrosine-protein phosphatase non-receptor type 7, sequence (P35236 whole entry): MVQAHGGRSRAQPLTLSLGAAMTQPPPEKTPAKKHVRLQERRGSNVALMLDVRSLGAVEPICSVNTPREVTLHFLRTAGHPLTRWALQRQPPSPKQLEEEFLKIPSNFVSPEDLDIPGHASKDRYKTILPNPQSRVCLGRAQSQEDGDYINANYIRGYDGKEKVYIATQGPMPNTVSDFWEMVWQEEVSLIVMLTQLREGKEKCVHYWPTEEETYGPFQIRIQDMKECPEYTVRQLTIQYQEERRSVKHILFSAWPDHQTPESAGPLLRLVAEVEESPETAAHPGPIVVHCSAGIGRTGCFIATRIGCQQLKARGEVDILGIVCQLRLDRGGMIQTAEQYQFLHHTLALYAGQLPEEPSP

[8] = target: T1, Tyrosine-protein phosphatase non-receptor type 22; assay: inhibition of lymphoid tyrosine phosphatase LYP – biochemical, pCAP fluorogenic substrate, fluorescence, set 3, SAR follow-up (AID 449727); type: functional
[9] = target: G-protein coupled receptor 55 (Homo sapiens, UniProt Q9Y2T6); assay: blockers of GPR55 signalling, imaged – imaging, image-based, counter-screen for GPR35 antagonist project, SAR follow-up (AID 2397); type: functional
G-protein coupled receptor 55, sequence (Q9Y2T6 whole entry): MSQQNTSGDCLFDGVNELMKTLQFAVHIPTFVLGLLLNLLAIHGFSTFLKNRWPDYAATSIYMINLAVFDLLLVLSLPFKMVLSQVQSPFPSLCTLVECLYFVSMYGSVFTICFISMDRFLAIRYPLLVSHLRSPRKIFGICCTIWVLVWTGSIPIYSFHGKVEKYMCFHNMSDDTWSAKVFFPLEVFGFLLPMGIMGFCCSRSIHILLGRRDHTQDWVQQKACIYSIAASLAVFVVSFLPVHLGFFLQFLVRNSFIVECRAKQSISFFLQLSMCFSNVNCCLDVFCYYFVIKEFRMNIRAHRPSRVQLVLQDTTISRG

[10] = target: T2, Cysteine protease ATG4B (Homo sapiens, UniProt Q9Y4P1); type: functional;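 note: Fluorescence-based dose-response confirmation assay measuring inhibition of ATG4B activity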
T2 sequence (Q9Y4P1 whole entry): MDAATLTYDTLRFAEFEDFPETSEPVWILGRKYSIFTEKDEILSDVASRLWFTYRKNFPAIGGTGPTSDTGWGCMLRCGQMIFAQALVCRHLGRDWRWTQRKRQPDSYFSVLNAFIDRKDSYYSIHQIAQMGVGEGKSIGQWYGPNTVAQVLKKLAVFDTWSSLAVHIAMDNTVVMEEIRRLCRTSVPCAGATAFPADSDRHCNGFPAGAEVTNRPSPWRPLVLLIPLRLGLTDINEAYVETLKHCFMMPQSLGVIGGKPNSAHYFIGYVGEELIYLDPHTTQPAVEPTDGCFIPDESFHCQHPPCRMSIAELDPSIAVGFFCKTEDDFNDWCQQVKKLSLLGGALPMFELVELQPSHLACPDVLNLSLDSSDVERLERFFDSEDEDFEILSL

[11] = target: Phospholipase A2 (Homo sapiens, UniProt P04054); type: functional;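 note: confirmatory dose-response counterscreen on phospholipase A2, testing hits that came from an ultra-high-throughput screen for ATG4B inhibitors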
Phospholipase A2, sequence (P04054 whole entry): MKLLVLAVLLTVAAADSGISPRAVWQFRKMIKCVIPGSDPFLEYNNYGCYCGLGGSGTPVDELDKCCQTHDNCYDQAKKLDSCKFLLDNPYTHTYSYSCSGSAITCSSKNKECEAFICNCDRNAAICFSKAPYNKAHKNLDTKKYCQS

[12] = target: SUMO E1/E2 (Homo sapiens, UniProt P63279+Q9UBE0+Q9UBT2); assay: SAR analysis of SUMOylation using HTRF in an in-Vitro dose response assay. [Related pubchem assays (depositor defined):AID2006, AID2011, AID2018, AID2069, AID2658]; type: functional
SUMO E1/E2, sequence (Q9UBE0 whole entry): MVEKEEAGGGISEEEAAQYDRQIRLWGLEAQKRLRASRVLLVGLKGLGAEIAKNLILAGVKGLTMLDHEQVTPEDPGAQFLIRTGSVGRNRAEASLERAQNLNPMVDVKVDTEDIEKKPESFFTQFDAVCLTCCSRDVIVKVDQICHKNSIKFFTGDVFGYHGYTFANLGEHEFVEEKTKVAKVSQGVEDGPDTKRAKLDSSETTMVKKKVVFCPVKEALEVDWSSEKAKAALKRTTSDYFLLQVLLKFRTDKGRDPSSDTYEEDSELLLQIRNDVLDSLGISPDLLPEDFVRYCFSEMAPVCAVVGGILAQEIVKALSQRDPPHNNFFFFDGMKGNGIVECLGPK
SUMO E1/E2, sequence (Q9UBT2 whole entry): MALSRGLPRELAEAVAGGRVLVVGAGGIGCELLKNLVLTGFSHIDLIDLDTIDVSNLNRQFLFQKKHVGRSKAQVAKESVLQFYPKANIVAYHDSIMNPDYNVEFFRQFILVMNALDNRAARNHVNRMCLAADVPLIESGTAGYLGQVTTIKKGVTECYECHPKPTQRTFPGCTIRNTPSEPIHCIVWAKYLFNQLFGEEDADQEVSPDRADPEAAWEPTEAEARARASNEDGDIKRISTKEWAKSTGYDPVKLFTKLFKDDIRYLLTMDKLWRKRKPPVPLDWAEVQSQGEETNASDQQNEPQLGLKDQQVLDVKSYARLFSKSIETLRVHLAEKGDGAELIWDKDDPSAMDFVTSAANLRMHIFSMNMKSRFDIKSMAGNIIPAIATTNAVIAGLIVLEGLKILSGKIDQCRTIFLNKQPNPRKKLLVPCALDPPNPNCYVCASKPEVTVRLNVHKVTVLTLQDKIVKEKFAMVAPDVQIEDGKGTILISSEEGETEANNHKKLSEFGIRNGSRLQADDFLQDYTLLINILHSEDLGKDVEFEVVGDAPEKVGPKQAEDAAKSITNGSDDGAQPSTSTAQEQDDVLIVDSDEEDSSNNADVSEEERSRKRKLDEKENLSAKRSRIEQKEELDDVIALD
SUMO E1/E2, sequence (P63279 whole entry): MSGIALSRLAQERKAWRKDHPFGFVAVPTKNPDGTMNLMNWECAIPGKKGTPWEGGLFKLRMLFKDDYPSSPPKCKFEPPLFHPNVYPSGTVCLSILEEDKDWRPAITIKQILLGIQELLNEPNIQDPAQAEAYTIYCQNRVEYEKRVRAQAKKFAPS

G-protein coupled receptor 35, sequence (Q9HC97 whole entry): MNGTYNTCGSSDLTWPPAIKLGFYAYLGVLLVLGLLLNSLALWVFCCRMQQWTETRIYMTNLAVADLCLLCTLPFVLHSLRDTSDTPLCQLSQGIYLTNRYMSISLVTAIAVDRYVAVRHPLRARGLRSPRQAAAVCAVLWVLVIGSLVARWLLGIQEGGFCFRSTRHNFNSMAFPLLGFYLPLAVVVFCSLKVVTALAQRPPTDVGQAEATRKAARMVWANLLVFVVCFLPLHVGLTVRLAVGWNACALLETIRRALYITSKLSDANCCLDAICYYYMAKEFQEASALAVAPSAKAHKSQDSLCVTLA

Row | IC50 [12] | SMILES | IC50 [1] | EC50 [2] | IC50 [3] | EC50 [4] | IC50 [5] | IC50 [6] | IC50 [7] | IC50 [8] | IC50 [9] | IC50 [10] | IC50 [11]
1 | – | CC(/C=C1\SC(=S)N(CCCC(=O)Nc2ccc(C(=O)O)cc2)C1=O)=C\c1ccccc1 | 1.59 µM (active) | 0.274 µM (active) | 38.9 µM (active) | 1.04 µM (active) | 8.24 µM (active) | 34.8 µM (active) | 1.28 µM (active) | 47.1 µM (active) | 17.9 µM (inactive) | 6.85 µM (active) | 5.33 µM (active)
2 | 12.5 µM (active) | S=c1[nH]nc(-c2cc(-c3ccccc3)[nH]n2)n1N=Cc1cccc(Cl)c1 | – | – | – | – | – | – | – | – | – | – | –
